Data taken from patent US20120082658A1, “Methods for the Treatment of Allergic Diseases” (VentiRx Pharmaceuticals, Inc., priority 2010, published 2012).
Where two headings read alike, the source gives them in different places.

Columns and labels:
human TLR8 = biological target: T1, human TLR8 (Homo sapiens, UniProt Q9NR97); assay: HEK293 cells transfected with human TLR8, NF-κB driven reporter; type: cell-based; details: read-out: half maximal effective concentration (EC50), activation of TLR8
T1 construct: expressed in transfected cells; host or cells: HEK293
T1 sequence (Q9NR97 27-1041): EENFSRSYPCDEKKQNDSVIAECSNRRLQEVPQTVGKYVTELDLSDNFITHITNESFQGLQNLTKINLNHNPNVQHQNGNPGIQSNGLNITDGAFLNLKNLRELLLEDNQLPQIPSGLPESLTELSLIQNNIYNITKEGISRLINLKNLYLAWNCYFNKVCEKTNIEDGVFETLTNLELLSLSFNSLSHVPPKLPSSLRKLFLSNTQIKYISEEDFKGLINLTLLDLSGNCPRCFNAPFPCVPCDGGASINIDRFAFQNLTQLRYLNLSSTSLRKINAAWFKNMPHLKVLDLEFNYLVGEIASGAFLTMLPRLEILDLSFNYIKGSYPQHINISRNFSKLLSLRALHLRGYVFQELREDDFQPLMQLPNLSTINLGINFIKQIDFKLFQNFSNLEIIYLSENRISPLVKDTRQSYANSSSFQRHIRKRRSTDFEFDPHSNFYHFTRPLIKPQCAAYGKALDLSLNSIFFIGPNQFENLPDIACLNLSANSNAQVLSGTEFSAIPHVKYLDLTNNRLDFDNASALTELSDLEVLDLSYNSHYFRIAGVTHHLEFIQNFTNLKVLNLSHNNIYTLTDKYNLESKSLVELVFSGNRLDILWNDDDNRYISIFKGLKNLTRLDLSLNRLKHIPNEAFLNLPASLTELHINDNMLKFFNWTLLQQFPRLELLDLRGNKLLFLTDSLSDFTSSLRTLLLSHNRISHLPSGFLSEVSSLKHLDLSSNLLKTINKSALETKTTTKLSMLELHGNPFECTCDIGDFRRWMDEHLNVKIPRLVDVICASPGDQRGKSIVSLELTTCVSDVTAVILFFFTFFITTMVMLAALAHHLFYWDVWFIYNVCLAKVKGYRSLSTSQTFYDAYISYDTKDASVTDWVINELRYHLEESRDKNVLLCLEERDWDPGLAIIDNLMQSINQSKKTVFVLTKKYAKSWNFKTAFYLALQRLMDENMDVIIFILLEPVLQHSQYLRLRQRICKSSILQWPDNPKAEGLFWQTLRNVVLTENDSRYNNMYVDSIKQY
Experimental: (§1) FIG. 8 is two graphs depicting the potency and selectivity of VTX-378 for TLR8. The half-maximal effective concentration (EC50) for VTX-378 activation of TLR8 and TLR7 was assessed in peripheral blood mononuclear cells (PBMCs) by the amount of secreted TNFα (A) and by the activity of NF-κB (B) from 15 healthy donors and also in HEK293 cells transfected with various human TLRs.
(§2) Preclinical studies were performed with VTX-378, the active pharmaceutical ingredient in VTX-1463. The specificity of VTX-378 for human TLR8 relative to other TLRs was assessed in transfected Human Embryonic Kidney 293 (HEK293) cells engineered to express individual TLRs (2-9) via transfection, and assessed using an NF-κB driven reporter system. […] The pharmacologic effects of VTX-378 were characterized in vitro using isolated human peripheral blood mononuclear cells (PBMCs).

TLR3 = biological target: T2, TLR3 (Homo sapiens, UniProt O15455); assay: HEK293 cells transfected with human TLR3, NF-κB driven reporter; type: cell-based; details: concentration up to 25 uM
T2 construct: expressed in transfected cells; host or cells: HEK293
T2 sequence (O15455 24-904): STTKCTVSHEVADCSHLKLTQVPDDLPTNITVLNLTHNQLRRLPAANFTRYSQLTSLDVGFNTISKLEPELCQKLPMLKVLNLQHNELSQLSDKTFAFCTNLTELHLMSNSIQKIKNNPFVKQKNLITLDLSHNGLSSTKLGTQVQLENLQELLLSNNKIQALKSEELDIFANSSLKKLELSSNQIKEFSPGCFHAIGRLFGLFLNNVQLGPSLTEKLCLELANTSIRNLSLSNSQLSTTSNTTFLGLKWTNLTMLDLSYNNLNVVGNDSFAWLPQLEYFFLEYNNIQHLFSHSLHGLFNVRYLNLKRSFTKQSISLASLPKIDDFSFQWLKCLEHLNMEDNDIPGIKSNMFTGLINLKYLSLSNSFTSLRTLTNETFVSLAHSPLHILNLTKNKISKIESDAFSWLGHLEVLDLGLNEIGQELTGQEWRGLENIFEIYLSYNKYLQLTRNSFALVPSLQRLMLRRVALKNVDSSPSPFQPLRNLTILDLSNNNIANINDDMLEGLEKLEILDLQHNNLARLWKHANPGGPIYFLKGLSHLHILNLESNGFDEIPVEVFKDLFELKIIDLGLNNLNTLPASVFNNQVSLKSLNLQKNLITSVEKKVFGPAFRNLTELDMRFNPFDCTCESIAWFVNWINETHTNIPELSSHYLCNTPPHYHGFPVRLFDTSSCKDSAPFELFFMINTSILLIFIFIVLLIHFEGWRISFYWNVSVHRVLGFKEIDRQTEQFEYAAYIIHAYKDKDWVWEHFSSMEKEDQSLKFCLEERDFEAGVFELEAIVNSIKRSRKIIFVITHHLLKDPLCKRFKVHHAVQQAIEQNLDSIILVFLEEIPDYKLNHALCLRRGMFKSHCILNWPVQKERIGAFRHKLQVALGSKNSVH
Experimental: as §1, §2

TLR5 = biological target: T3, TLR5 (Homo sapiens, UniProt O60602); assay: HEK293 cells transfected with human TLR5, NF-κB driven reporter; type: cell-based; details: concentration up to 25 uM
T3 construct: expressed in transfected cells; host or cells: HEK293
Experimental: as §1, §2

[1] = system: human peripheral blood mononuclear cells (PBMCs); assay: Cytokine production in isolated human PBMCs; type: cell-based; details: for EC50: Homo sapiens, PBMC
Experimental: as §2

[2] = system: ragweed-sensitized beagle dogs; assay: Model of allergic rhinitis in ragweed-sensitized beagle dogs (acoustic rhinometry, nasal mediators); type: in vivo, beagle dog
Experimental: FIG. 1 is four graphs establishing that one day pretreatment with VTX-378 reduces nasal congestion.
The therapeutic activity of VTX-378 was assessed in a well characterized model of allergic rhinitis in ragweed-sensitized beagle dogs (FIGS. 1-7). Acoustic rhinometry (AcR) can be used to measure the direct effect on the nasal mucosa following nasal instillation of ragweed antigen.

[3] = single dose 1000 ug intranasal one day prior to ragweed challenge

T3 sequence (O60602 21-858): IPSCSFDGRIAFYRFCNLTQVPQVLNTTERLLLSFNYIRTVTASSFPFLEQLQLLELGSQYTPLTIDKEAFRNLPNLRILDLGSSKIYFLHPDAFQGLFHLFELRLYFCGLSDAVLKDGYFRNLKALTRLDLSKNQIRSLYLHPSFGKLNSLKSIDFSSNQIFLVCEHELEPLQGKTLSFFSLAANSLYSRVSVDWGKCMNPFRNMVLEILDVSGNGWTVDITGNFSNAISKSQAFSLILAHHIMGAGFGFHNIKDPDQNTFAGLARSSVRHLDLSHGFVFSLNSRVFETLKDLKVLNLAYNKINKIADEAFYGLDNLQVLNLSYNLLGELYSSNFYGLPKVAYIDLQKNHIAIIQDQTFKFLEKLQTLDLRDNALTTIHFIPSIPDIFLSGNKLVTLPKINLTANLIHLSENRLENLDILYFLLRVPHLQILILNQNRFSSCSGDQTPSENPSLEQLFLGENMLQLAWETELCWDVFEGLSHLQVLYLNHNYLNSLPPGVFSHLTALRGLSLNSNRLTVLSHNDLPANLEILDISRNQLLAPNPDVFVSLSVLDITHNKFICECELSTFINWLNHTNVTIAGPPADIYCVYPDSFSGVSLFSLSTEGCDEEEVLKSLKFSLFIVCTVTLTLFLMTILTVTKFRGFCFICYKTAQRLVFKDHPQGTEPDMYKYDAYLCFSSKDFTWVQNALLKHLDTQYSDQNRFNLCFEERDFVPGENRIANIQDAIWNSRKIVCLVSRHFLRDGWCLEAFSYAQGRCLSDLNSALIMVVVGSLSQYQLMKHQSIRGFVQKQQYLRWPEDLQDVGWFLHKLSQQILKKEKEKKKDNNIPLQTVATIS

`CCCN(CCC)C(=O)C1=Cc2ccc(-c3ccc(C(=O)N4CCCC4)cc3)cc2N=C(N)C1` [VTX-378] was tested, and the EC50 (human TLR8) was about 100 nM, the “activity on TLR3” value (TLR3) was “no detectable activity” and the “activity on TLR5” value (TLR5) was “no detectable activity”. For the same molecule, the EC50 ([1]; analyte IL-10, read-out: EC50, IL-10 production) was 120 nM, the EC50 ([1]; analyte IL-12p40, read-out: EC50, IL-12p40 production) was 230 nM and the EC50 ([1]; analyte IL-12p70, read-out: EC50, IL-12p70 production) was 220 nM. The “Mean Mediator Level ± SEM, IL-10” value ([1]; VTX-378 1.6 uM) was 72 ± 29 pg/mL, the “Mean Mediator Level ± SEM, IL-12p70” value ([1]; VTX-378 1.6 uM) was 38 ± 10 pg/mL and the “Mean Mediator Level ± SEM, IL-12p40” value ([1]; VTX-378 1.6 uM, *p < 0.05 to Control) was 140 ± 32* pg/mL. For the same molecule, the “production of Th-1 cytokines and chemokines including IL-12, IFN, MCP-1 and MIP-1β” value ([1]; incubation with isolated human PBMCs) was “stimulated PBMCs to produce”, the “production of allergic mediators (nasal histamine, leukotrienes C4/D4/E4, prostaglandin D2, prostaglandin E2)” value ([2]; dose not given) was “significantly reduced” and the “allergic response to antigen challenge (acoustic rhinometry)” value ([2]; intranasal 100-1000 mcg) was “dose-dependent, statistically significant reduction”. For the same molecule, the “level of nasal histamine” value ([2]; single dose 100 ug) was “less significant”, the “level of nasal leukotrienes C4/D4/E4” value ([2]; single dose 100 ug) was “less significant” and the “level of nasal prostaglandin D2” value ([2]; single dose 100 ug) was “less significant”. The “level of nasal prostaglandin E2” value ([2]; single dose 100 ug) was “less significant”, the “allergic responses (nasal congestion)” value ([2]; single dose 100 ug, 500 ug and 1000 ug intranasal one day prior to ragweed challenge) was “significantly attenuated allergic responses” and the “level of nasal histamine” value [2, 3] was “significantly reduced”. For the same molecule, the “level of nasal leukotrienes C4/D4/E4” value [2, 3] was “significantly reduced”, the “level of nasal prostaglandin D2” value [2, 3] was “significantly reduced” and the “level of nasal prostaglandin E2” value [2, 3] was “significantly reduced”. For the same molecule, the “attenuation of nasal congestion” value ([2]; single dose of 1000 mcg intranasal before ragweed challenge) was 56.5%±10.0, the “allergic responses (nasal congestion)” value ([2]; two 250 ug doses intranasal one day and four-day prior to ragweed challenge) was “significantly attenuated allergic responses” and the “allergic responses (nasal congestion)” value ([2]; two 1000 ug doses intranasal, one day and four-day or one day and eight-day prior to ragweed challenge) was “significantly attenuated allergic responses”. For the same molecule, the “improvement of nasal congestion” value ([2]; two doses of 1000 mcg separated by 4 days) was 65.4%±10.3 and the “improvement of nasal congestion” value ([2]; two doses of 1000 mcg separated by 7 days) was 71.9%±7.7.
